# Data from patent US20110086063A1, “VACCINES FOR PREVENTION AND TREATMENT OF ADDICTION” (priority 2008, published 2011).
# Where two headings read alike, the source gives them in different places.
# Tests used:
# [1] = Stability of cocaine hapten
# [2] = biological target: T1, dopamine transporters (DAT) (Homo sapiens, UniProt Q01959); conditions: human cocaine abusers; cited from earlier work
# T1 construct: In human cocaine abusers, at least 47% of the DAT needs to be occupied; host or cells: human brain, in vivo
# T1 sequence (Q01959 whole entry): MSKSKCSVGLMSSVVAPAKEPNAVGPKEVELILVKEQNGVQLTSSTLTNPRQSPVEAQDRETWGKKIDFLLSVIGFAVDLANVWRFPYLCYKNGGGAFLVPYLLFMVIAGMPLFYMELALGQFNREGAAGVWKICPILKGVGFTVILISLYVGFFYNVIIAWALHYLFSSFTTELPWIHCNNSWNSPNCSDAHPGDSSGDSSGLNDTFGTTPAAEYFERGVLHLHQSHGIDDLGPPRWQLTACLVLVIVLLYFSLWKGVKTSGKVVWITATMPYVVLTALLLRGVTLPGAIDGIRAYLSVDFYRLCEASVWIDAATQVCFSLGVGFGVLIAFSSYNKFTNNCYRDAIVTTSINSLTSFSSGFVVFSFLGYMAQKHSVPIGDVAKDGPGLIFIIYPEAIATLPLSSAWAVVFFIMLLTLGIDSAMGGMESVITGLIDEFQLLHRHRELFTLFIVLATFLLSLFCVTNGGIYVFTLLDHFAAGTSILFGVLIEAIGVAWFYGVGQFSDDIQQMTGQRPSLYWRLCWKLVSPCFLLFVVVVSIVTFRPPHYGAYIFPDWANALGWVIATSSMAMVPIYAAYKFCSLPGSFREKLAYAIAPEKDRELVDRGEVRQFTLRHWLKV
# [3] = biological target: T2, dopamine transporters (DAT) (Macaca mulatta, UniProt Q7JHP9); conditions: rhesus monkeys, cited from earlier work
# T2 construct: In rhesus monkeys, doses of 0.1 and 1.0 mg/kg cocaine occupy 53% and 87% of the DAT; host or cells: rhesus monkey brain, in vivo
# T2 sequence (Q7JHP9 1-620): as the sequence (Q01959 whole entry) above, with V24M, I137V, P194S, S198G, D200N, S201G, S202P counted along it
# [4] = tested on: female rhesus monkeys; assay: Cocaine and candy self-administration choice in female rhesus monkeys; assay type: in vivo; conditions: representative female monkey; either dose of cocaine available (FIG. 5)
# From the text: FIG. 5 is a bar graph depicting cocaine and candy self-administration in female rhesus monkeys. The data is presented as a function of cocaine dose available.
# A non-human primate model of intravenous cocaine self-administration will be used to determine if vaccination with Ad-cocaine decreases drug taking, which will likely provide the best predictor of clinical efficacy. To control for nonselective effects, monkeys will be trained to self-administer cocaine and candy, using a choice procedure. If the vaccine is effective at blocking the effects of cocaine, monkeys should decrease the number of cocaine choices self-administered and correspondingly increase the number of candy choices. A non-specific effect would be evidenced by a decrease in both cocaine and candy choices. After all monkeys have been trained to enter the primate chair and respond on the levers for candy, they will have vascular access port surgery (VAP). For self-administration sessions, monkeys will be placed into custom-built primate chairs, moved to the workstation, and connected to the infusion apparatus. Sessions will be conducted five days per week. Monkeys will initially be trained to self-administer 0.1 mg/kg cocaine per infusion. Once responding is stable, the cocaine dose available will be 0.05 mg/kg/infusion. […]
Structure (SMILES),stability relative to GNC [1],DAT occupancy needed to perceive the subjective effects of cocaine [2],occupancy of the DAT ([3]; 0.1 mg/kg cocaine) [%],occupancy of the DAT ([3]; 1.0 mg/kg cocaine) [%],choice between i.v. cocaine and candy [4]
CN1C2CCC1[C@@H](C(=O)NCCCCCC(=O)O)[C@@H](OC(=O)c1ccccc1)C2 (some centres unmarked) [GNE],more stable than GNC,–,–,–,–
COC(=O)[C@@H]1C2CCC(C[C@@H]1OC(=O)c1ccccc1)N2C (some centres unmarked) [cocaine],–,at least 47%,53,87,exclusively chose cocaine over candy
